Test: Pd(II)-catalysed intramolecular ortho C(sp2)-H olefination (oxidative Heck-type aryl-alkenyl C-C bond) of peptide aryl/benzyl/thienyl sulfonamides with pendant acrylate or unactivated terminal alkene; Pd(OAc)2 10 mol%, AgOAc 2.0 equiv
Settings: 1,2-dichloroethane (DCE), 50.0 mM, 80.0 °C, 24.0 h

For `COC(=O)[C@@H]1Cc2ccc(cc2)OC(=O)C=Cc2ccccc2CS(=O)(=O)N[C@@H](C(C)(C)C)C(=O)NCC(=O)N2CCC[C@H]2C(=O)N1` [PhCH2SO2-tLeu-Gly-Pro-Tyr(O-acryloyl)-OMe], the ring closure, isolated yield (from C=CC(=O)Oc1ccc(C[C@H](NC(=O)[C@@H]2CCCN2C(=O)CNC(=O)[C@@H](NS(=O)(=O)Cc2ccccc2)C(C)(C)C)C(=O)OC)cc1, 24-membered ring) was 72%.
With `COC(=O)[C@@H]1COC(=O)C=Cc2ccccc2CS(=O)(=O)N[C@@H](C(C)(C)C)C(=O)N1` [PhCH2SO2-tLeu-Ser(O-acryloyl)-OMe] the ring closure, isolated yield (from C=CC(=O)OC[C@H](NC(=O)[C@@H](NS(=O)(=O)Cc1ccccc1)C(C)(C)C)C(=O)OC, 14-membered ring) was 52%.
In the case of `COC(=O)[C@@H]1COC(=O)C=Cc2ccccc2CS(=O)(=O)N[C@@H](C(C)(C)C)C(=O)NCC(=O)NCC(=O)NCC(=O)N1` [PhCH2SO2-tLeu-Gly-Gly-Gly-Ser(O-acryloyl)-OMe], the ring closure, isolated yield (from C=CC(=O)OC[C@H](NC(=O)CNC(=O)CNC(=O)CNC(=O)[C@@H](NS(=O)(=O)Cc1ccccc1)C(C)(C)C)C(=O)OC, 23-membered ring) is reported as 34%.
Compound `COC(=O)[C@@H]1COC(=O)CCC=Cc2ccccc2CS(=O)(=O)N[C@@H](C(C)(C)C)C(=O)NCC(=O)N1` [PhCH2SO2-tLeu-Gly-Ser(O-pent-4-enoyl)-OMe] has a ring closure, isolated yield (from C=CCCC(=O)OC[C@H](NC(=O)CNC(=O)[C@@H](NS(=O)(=O)Cc1ccccc1)C(C)(C)C)C(=O)OC, 19-membered ring) of 53%.
For `COC(=O)[C@@H]1COC(=O)C=Cc2ccccc2CS(=O)(=O)N[C@@H](C(C)(C)C)C(=O)NCC(=O)N1` [PhCH2SO2-tLeu-Gly-Ser(O-acryloyl)-OMe], the ring closure, isolated yield (from C=CC(=O)OC[C@H](NC(=O)CNC(=O)[C@@H](NS(=O)(=O)Cc1ccccc1)C(C)(C)C)C(=O)OC, 17-membered ring) was 58%.
For `COC(=O)[C@@H]1COC(=O)C=Cc2ccccc2S(=O)(=O)N[C@@H](C(C)(C)C)C(=O)NCC(=O)N2CCC[C@H]2C(=O)N1` [PhSO2-tLeu-Gly-Pro-Ser(O-acryloyl)-OMe], the ring closure, isolated yield (from C=CC(=O)OC[C@H](NC(=O)[C@@H]1CCCN1C(=O)CNC(=O)[C@@H](NS(=O)(=O)c1ccccc1)C(C)(C)C)C(=O)OC, 19-membered ring) was 67%.
Work on `COC(=O)[C@@H]1COC(=O)C=Cc2ccccc2CS(=O)(=O)N[C@@H](C(C)(C)C)C(=O)NCC(=O)NCC(=O)N1` [PhCH2SO2-tLeu-Gly-Gly-Ser(O-acryloyl)-OMe] yielded a ring closure, isolated yield (from C=CC(=O)OC[C@H](NC(=O)CNC(=O)CNC(=O)[C@@H](NS(=O)(=O)Cc1ccccc1)C(C)(C)C)C(=O)OC, 20-membered ring) of 45%.
Work on `COC(=O)[C@@H]1COC(=O)C=Cc2ccsc2S(=O)(=O)N[C@@H](C(C)(C)C)C(=O)NCC(=O)N2CCC[C@H]2C(=O)N1` [(thiophene-2-SO2)-tLeu-Gly-Pro-Ser(O-acryloyl)-OMe] yielded a ring closure, isolated yield (from C=CC(=O)OC[C@H](NC(=O)[C@@H]1CCCN1C(=O)CNC(=O)[C@@H](NS(=O)(=O)c1cccs1)C(C)(C)C)C(=O)OC, 19-membered ring) of 59%.
Work on `COC(=O)[C@@H]1COC(=O)C=Cc2ccsc2S(=O)(=O)N[C@@H](COC(C)(C)C)C(=O)NCC(=O)N2CCC[C@H]2C(=O)N1` [(thiophene-2-SO2)-Ser(tBu)-Gly-Pro-Ser(O-acryloyl)-OMe] yielded a ring closure, isolated yield (from C=CC(=O)OC[C@H](NC(=O)[C@@H]1CCCN1C(=O)CNC(=O)[C@H](COC(C)(C)C)NS(=O)(=O)c1cccs1)C(=O)OC, 19-membered ring) of 53%.
`COC(=O)[C@@H]1Cc2ccc(cc2)OCC=Cc2ccccc2S(=O)(=O)N[C@@H](C(C)(C)C)C(=O)NCC(=O)N2CCC[C@H]2C(=O)N1` [PhSO2-tLeu-Gly-Pro-Tyr(O-allyl)-OMe] gave a ring closure, isolated yield (from C=CCOc1ccc(C[C@H](NC(=O)[C@@H]2CCCN2C(=O)CNC(=O)[C@@H](NS(=O)(=O)c2ccccc2)C(C)(C)C)C(=O)OC)cc1, 23-membered ring) of 61%.
